Source: patent US6534313B1, “Genetically modified plants having modulated brassinosteroid signaling” (The Salk Institute for Biological Studies, priority 1999, dated 2003)

Legend:
[1] = tested on: bas1-DphyB-4 and phyB-4 seedlings; assay: Feeding experiment: metabolism of deuterium-labeled and non-labeled brassinolide in aseptically grown seedlings, GC-MS; type: in vivo; details: Arabidopsis seedlings, one day, GC-MS comparison with authentic sample
From the text: To test the hypothesis that overexpression of bas1 gene product results in hydroxylation of brassinolide, metabolism of deuterium-labeled and non-labeled brassinolide was examined using aseptically grown seedlings. As possible hydroxylated metabolites of brassinolide, 14-hydroxybrassinolide, 20-hydroxybrassinolide, 25-hydroxybrassinolide, 26-hydroxybrassinolide, and 28-hydroxybrassinolide were chemically synthesized. The possible hydroxylated brassinolide fractions from the feeding experiments were analyzed by gas chromatograph-mass spectrometry (GC-MS) after conversion to methaneboronate-trimethylsilyl derivatives.
In preliminary experiments, bas1-DphyB-4 and phyB-4 seedlings were fed ^2H6-labeled brassinolide (d6-BL) and incubated for one day. […] When BL was fed to the seedlings, 26-OHBL was detected as a metabolite of BL. […] When d6-BL was fed to the seedlings, fragment ions such as m/z 625, 583 and 570 were detected. […]
For brassinosteroid measurements, plants were grown on soil (Neff and Chory, supra) in short day conditions (8 hours of light, […] of dark) for five weeks before rosettes were harvested in liquid nitrogen. […] Brassinosteroids were analyzed according to the methods described by (S. Fujioka et al., Plant Cell 9:1951-1962, 1997). […]
Each fraction was subjected to GC-MS analysis after derivatization. 26-OHBL was detected from retention time of 2-3 min. […]

Arabidopsis seedlings = assay: Brassinolide dose response of seedling hypocotyls and cotyledon petioles; type: in vivo
From the text: FIGS. 3A-C are graphs showing the dose response of hypocotyls of seedlings to brassinosteroid as measured after 6 days on varying levels of brassinolide. […] Col-O=closed circles; phyB-4=open diamonds; bas1-DphyB-4=open circles; BAS1′ antisense line=closed diamonds; and det2-1=open triangles. Error bars represent one standard error from the mean. When no error bars are visible, they are smaller than the symbols.
By contrast, a brassinosteroid biosynthesis mutant det2-1 produced petioles that were shorter than the wild type in the light, while the petioles of phyB-4 mutants were longer than the wild type in the light. In both cases, these phenotypes were rescued by exposure to increasing amounts of brassinosteroids.
(CIDtech Research Inc., Mississauga, Ontario, Canada) 2 mM Brassinolide stock was made by dissolving in 95% (v/v) EtOH and stored at −20° C. The 1 μM solution was made by a 1:2000 fold dilution of the 2 mM stock in standard growth media. All other concentrations including the negative control contained the same amount of EtOH. Light conditions for fluence responses in red and blue light and seedling measurements were performed as described in Neff and Chory, supra. An E30LED growth chamber (Percival Scientific, Boone, IA) supplied far-red light. Far-red fluences were measured with a portable spectroradiometer (model LI-1800, Li-Cor, Inc., Lincoln, Nebr.).

Molecule | metabolite detected after feeding to seedlings [1] | hypocotyl hyper-responsivity to brassinolide (Arabidopsis seedlings; BAS1 antisense lines, grown in the dark, 6 days) | hypocotyl response to brassinolide (Arabidopsis seedlings; BAS1 antisense lines, grown in the light, 6 days) | rosette response to brassinolide (Arabidopsis seedlings; plants overexpressing bas1 (bas1-DphyB-4), white light)
CC(C)[C@H](C)[C@@H](O)[C@H](O)[C@@H](C)[C@H]1CC[C@H]2[C@@H]3COC(=O)[C@H]4C[C@H](O)[C@H](O)C[C@]4(C)[C@H]3CC[C@]12C [BL, brassinolide] | 26-OHBL | not | hyper-responsivity | insensitive
2H6-labeled brassinolide [d6-BL] | d6-26-OHBL | – | – | –
